Reference: PMC9739882, “Main Determinants Affecting the Antiproliferative Activity of Stilbenes and Their Gut Microbiota Metabolites in Colon Cancer Cells: A Structure–Activity Relationship Study” (International Journal of Molecular Sciences, 2022)
Where two headings read alike, the source gives them in different places.

Columns and labels:
[1] = tested on: HT-29 cells; assay: MTT antiproliferative assay in HT-29 cells; type: cell-based, human; settings: for IC50: Homo sapiens, HT-29, antiproliferative, MTT, mean ± SD (n = 3); for IC50 decrease from 48 to 72 h in HT-29: ratio of IC50 at 48 h vs 72 h (Figure S1)
Method: (§1) The cell lines were obtained from the American Type Culture Collection (ATCC, Rockville, MD, USA) and cultured according to the ATCC. The human colon cancer cell lines Caco-2 (p53-null) and HT-29 (mutant p53), and non-tumorigenic colon cells CCD18-Co (wild-type p53) were grown as reported elsewhere. All tested compounds were solubilized in DMSO (<0.5% in the culture medium) and filter-sterilized (0.2 μm) before addition to the culture media. […] The effects of the compounds on Caco-2, HT-29, and CCD18-Co cell viability and proliferation were measured using the MTT reduction assay according to Giménez-Bastida et al.. Data are presented as the mean ± standard deviation (SD) of at least three independent experiments (n = 2 wells for each compound (dose and time point) per experiment). Then, IC50 antiproliferative values were determined using a four-parameter logistic regression fit. The calculations were performed using the online tool Quest Graph^TM IC50 Calculator (AAT Bioquest, Inc., Sunnyvale, CA, USA (https://www.aatbio.com/tools/ic50-calculator, accessed on 26 April 2022).

[2] = tested on: Caco-2 cells; assay: Apoptosis induction in Caco-2 cells (Annexin V/PI, flow cytometry); type: cell-based, human; settings: Caco-2, 72 h, compound at its IC50 concentration
Method: (§2) The effects of all the compounds at their corresponding IC50 values for 3 days of treatment on cell cycle distribution in Caco-2 cells were measured as described previously. Data are shown as the mean ± SD of 3 independent experiments (2 wells per treatment) for each time point. In addition, the apoptosis induction exerted by all the compounds at their corresponding IC50 values for 3 days of treatment was examined using the Annexin V/PI detection kit (Molecular Probes, ThermoFisher Scientific, Madrid, Spain) as described previously. Briefly, 20,000 Caco-2 cells per sample were analyzed by flow cytometry (Coulter, EPICS XL-MCL, Miami, FL, USA), and staurosporine 5 μM was used as a standard inducer of apoptosis. Finally, the percentage of alive (negative in both annexin V-FITC and PI), early apoptotic (positive in annexin V-FITC and negative in PI), late apoptotic (positive in both annexin V-FITC and PI), and necrotic cells (only positive in PI) was calculated. Data are shown as the mean ± SD of 3 independent experiments (2 wells per treatment) for each time point.

[3] = tested on: Caco-2 cells; assay: MTT antiproliferative assay in Caco-2 cells; type: cell-based, human; settings: for IC50: Homo sapiens, Caco-2, antiproliferative, MTT, mean ± SD (n = 3)
Method: as §1

[4] = tested on: Caco-2 cells; assay: Phase-II metabolism of compounds by Caco-2 cells (UPLC-QTOF-MS of culture media); type: in vitro ADME, human; settings: 50 μM, 72 h incubation
Method: (§3) Briefly, cell culture supernatants were collected at the end of the experiment and analyzed to measure the presence and concentration of the tested compounds. First, ACN (200 μL) was added per 200 μL of culture media, vortexed, and centrifuged at 16,435× g for 10 min. The supernatant was then concentrated in a Speedvac® concentrator (Savant SPD 121P), and then the residue was redissolved in 100 μL of MeOH and filtered (0.45 μm) before analysis by UPLC-QTOF-MS.
(§4) Briefly, the analyses were performed on an Agilent 1290 Infinity UPLC system coupled to a 6550 Accurate-Mass quadrupole-time-of-flight (QTOF) mass spectrometer (Agilent Technologies, Waldbronn, Germany) using an electrospray interface (Jet Stream Technology). Chrysin was used as an internal control of the ionization signal. Spectra were acquired in the m/z range from 100 to 1100, in negative polarity mode (m/z^−) and an acquisition rate of 1.5 spectra/s. Data were processed using the Mass Hunter Qualitative Analysis software (version B.06.00, Agilent). […]
(§5) A direct comparison with the available standards was used to identify the different metabolites. […] In addition, using extracted ion chromatograms (EICs) for area calculation and quantification reduced the possibility of misinterpreting overlapping peaks.

[5] = tested on: Caco-2 cells; assay: Cell cycle distribution in Caco-2 cells (flow cytometry); type: cell-based, human; settings: Caco-2, 72 h, compound at its IC50 concentration, p < 0.05 vs control
Method: as §2

[6] = tested on: HT-29 cells; assay: Phase-II metabolism of compounds by HT-29 cells (UPLC-QTOF-MS of culture media); type: in vitro ADME, human; settings: 50 μM, 24 h incubation
Method: as §3, §4, §5

[7] = parameters: method as in PMID 35981285; settings: cited from earlier work
[8] = tested on: CCD18-Co cells; assay: MTT antiproliferative assay in non-tumorigenic CCD18-Co cells; type: cell-based; settings: Homo sapiens, CCD-18Co, 72 h, non-tumorigenic colon cells
Method: as §1

[9] = 48 h, read-out: IC50 HT-29 (48 h)
[10] = 72 h, read-out: IC50 HT-29 (72 h)
[11] = 48 h, read-out: IC50 Caco-2 (48 h)
[12] = 72 h, read-out: IC50 Caco-2 (72 h)

IC50 [1, 9] [µM]	IC50 [1, 10] [µM]	IC50 [3, 11] [µM]	IC50 [3, 12] [µM]	IC50 decrease from 48 to 72 h in HT-29 [1]	Compound	early-phase apoptotic cells vs control cells [2]	late-phase apoptotic cells vs control cells [2]	compound metabolized by Caco-2 cells after 72 h [4]	IC50 decrease from 48 to 72 h in Caco-2 ([3]; ratio of IC50 at 48 h vs 72 h (Figure S1)) [fold]	cell cycle phase increase vs control [5]	compound metabolized by HT-29 cells after 24 h [6]	concentration reached in the human colon [7] [µM]	IC50 [8] [µM]
> 100	82.4 ± 12.1	54 ± 3.1	73.9 ± 13.8		Oc1cc(O)cc(CCc2ccccc2)c1 [DHP, 3-hydroxy-(5-phenethyl)phenol]	statistically significant (p < 0.05)							
64.8 ± 15.6	48.3 ± 17.8	57.1 ± 10.2	22.7 ± 6.4		Oc1ccc(C=Cc2cccc(O)c2)cc1 [DHST, 3-(4-hydroxystyryl)phenol]	statistically significant (p < 0.05)	significant differences (p < 0.05)			significant increase (p < 0.05) was observed at both phases, S and G2/M			
> 100	53.2 ± 6.8	84.5 ± 11.7	50.5 ± 23.1		Oc1ccc(CCc2cccc(O)c2)cc1 [LUNU, 3-(4-hydroxyphenethyl)phenol]							> 100	67
78.5 ± 5.7	69.5 ± 4.6	55.4 ± 10.8	42 ± 9.8		Oc1cc(O)cc(/C=C/c2ccc(O)c(O)c2)c1 [PICE, 3,5,3′,4′-tetrahydroxy-trans-stilbene]	statistically significant (p < 0.05)	significant differences (p < 0.05)						
37.5 ± 14.3	38.1 ± 8	55.3 ± 12.7	26.4 ± 7.1	no change	Oc1cc(O)cc(/C=C/c2ccccc2)c1 [PINO, 3,5-dihydroxy-trans-stilbene]	statistically significant (p < 0.05)							
45.1 ± 13.7	37.9 ± 5.4	67.6 ± 12.3	43 ± 11.6		COc1cc(/C=C/c2ccc(O)cc2)cc(OC)c1 [PTERO, 3,5-dimethoxy, 4′-hydroxy-trans-stilbene]	statistically significant (p < 0.05)	significant differences (p < 0.05)			significant increase (p < 0.05) was observed only at the G2/M phase			
68.9 ± 22.6	59.1 ± 9.9	50.4 ± 3.4	18.8 ± 1.6		Oc1ccc(/C=C/c2cc(O)cc(O)c2)cc1 [RSV, 3,5,4′-trihydroxy-trans-stilbene]		significant differences (p < 0.05)	14%			100%		

Second part, the compound before the results:

Compound	IC50 [1, 9] [µM]	IC50 [1, 10] [µM]	IC50 [3, 11] [µM]	IC50 [3, 12] [µM]	IC50 decrease from 48 to 72 h in HT-29 [1]	early-phase apoptotic cells vs control cells [2]	late-phase apoptotic cells vs control cells [2]	compound metabolized by Caco-2 cells after 72 h [4]	IC50 decrease from 48 to 72 h in Caco-2 ([3]; ratio of IC50 at 48 h vs 72 h (Figure S1)) [fold]	cell cycle phase increase vs control [5]	compound metabolized by HT-29 cells after 24 h [6]	concentration reached in the human colon [7] [µM]	IC50 [8] [µM]
Oc1cccc(CCc2ccccc2)c1 [3HDB, 3-(2-phenylethyl)phenol]	> 100	81.7 ± 15.5	> 100	42.9 ± 4.1		statistically significant (p < 0.05)							
Oc1ccc(CCc2ccccc2)cc1 [4HDB, 4-(2-phenylethyl)phenol]	> 100	96.7 ± 6.7	> 100	56.9 ± 8									
Oc1ccc(/C=C/c2ccccc2)cc1 [4HST, 4-Hydroxy-trans-stilbene]	34 ± 8.1	24.4 ± 11.3	26.9 ± 8	11.4 ± 10.1	1.4 fold		significant differences (p < 0.05)	hardly metabolized	5	significant increase (p < 0.05) was observed at both phases, S and G2/M	fully metabolized		
OCc1ccc(/C=C/c2ccccc2)cc1 [4STMe, trans-4-stilbenemethanol]	85.4 ± 16.5	57.1 ± 18.9	88.3 ± 14.6	59.9 ± 23.1		statistically significant (p < 0.05)							
Oc1ccc(CCc2cc(O)cc(O)c2)cc1 [DHRSV, Dihydroresveratrol]	> 100	69 ± 9.3	55.4 ± 10.8	33.8 ± 17.8		statistically significant (p < 0.05)						> 100	53
Oc1cc(O)cc(/C=C/c2ccc(O)cc2O)c1 [Oxy-RSV, 3,5,2′,4′-tetrahydroxy-trans-stilbene]	96.7 ± 2.4	83.4 ± 5.8	74.7 ± 11.5	55.4 ± 2.5		statistically significant (p < 0.05)	significant differences (p < 0.05)						
